# Source: patent US20230087609A1, “USE OF A SOLUBLE GUANYLATE CYCLASE (sGC) STIMULATOR OR OF A COMBINATION OF A sGC STIMULATOR AND AN sGC ACTIVATOR FOR CONDITIONS WHEREIN THE HEME GROUP OF sGC IS OXIDIZED OR WHEREIN sGC IS DEFICIENT IN HEME” (Universiteit Maastricht, priority 2020, published 2023)
# Tests used:
# [1] = target: T1, apo-sGC (sGCβ1 H105F knock-in) (Mus musculus, UniProt O54865, H105F); assay: sGC activity in lung homogenates of apo-sGC mice; format: biochemical
# T1 construct: from tissue; host or cells: lung homogenate of homozygous sGCβ1 H105F knock-in mice
# T1 sequence (O54865 1-620 H105F): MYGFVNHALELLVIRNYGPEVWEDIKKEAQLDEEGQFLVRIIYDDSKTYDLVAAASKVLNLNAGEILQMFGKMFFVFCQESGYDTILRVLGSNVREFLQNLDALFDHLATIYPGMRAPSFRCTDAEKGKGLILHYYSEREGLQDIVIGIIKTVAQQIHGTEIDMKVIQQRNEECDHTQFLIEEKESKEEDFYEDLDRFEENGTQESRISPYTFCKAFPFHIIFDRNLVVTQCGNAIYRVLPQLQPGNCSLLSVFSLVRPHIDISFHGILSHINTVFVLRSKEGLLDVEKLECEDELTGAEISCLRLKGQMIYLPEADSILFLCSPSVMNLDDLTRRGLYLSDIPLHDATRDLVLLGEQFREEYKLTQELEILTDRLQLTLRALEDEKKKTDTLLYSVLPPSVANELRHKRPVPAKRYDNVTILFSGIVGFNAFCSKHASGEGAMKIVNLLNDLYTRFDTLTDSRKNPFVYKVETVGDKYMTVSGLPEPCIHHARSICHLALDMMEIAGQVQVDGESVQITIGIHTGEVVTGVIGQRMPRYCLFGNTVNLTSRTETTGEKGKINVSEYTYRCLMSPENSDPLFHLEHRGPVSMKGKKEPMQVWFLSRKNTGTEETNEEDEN
# T1 sequence (Q9ERL9 1-691 partner): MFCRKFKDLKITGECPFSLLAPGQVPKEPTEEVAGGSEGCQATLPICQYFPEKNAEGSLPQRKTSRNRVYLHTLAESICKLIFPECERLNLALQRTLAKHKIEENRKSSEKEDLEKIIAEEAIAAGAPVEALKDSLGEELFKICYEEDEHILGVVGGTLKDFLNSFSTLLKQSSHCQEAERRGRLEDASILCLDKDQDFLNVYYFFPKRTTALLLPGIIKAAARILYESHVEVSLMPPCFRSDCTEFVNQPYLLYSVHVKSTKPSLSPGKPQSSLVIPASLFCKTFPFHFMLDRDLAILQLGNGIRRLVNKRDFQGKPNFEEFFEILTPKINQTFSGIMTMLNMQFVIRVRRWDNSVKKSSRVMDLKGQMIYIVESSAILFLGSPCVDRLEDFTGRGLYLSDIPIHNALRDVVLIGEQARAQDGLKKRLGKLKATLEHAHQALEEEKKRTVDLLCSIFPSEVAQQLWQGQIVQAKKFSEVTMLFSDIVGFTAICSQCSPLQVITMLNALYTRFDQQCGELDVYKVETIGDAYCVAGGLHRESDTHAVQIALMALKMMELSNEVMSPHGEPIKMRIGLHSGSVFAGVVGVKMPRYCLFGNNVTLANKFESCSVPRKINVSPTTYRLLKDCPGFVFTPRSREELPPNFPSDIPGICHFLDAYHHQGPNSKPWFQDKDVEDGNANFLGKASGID
# Protocol: Adult male Sprague Dawley (SD) rats (age, 10-12 weeks) were obtained from Animal Resources Centre (Western Australia). Animals were housed on a 12 hour day/night cycle at a room temperature of 20±2° C., in the Department of Pharmacology Animal House, Monash University. The animals were fed standard rodent chow and water was available ad libitum. Homozygous male sGC(1^H105F knock-in mice (“apo-sGC mice”) were kindly provided by Tufts Medical Center, Molecular Cardiology Research Center, Boston, Mass., USA (Toonen et al., Nat Commun. 2015; 6:8482. doi: 10.1038/ncomms9482).
# To measure sGC activity, cells were stimulated with 250 μM DEA/NO or 10 μM BAY58-2667 for 3 min at 37° C. Thereafter, cells were immediately lysed in 80% ethanol. Cells were scraped and, after evaporation of ethanol, re-suspended in assay buffer and sonicated. Measurement of sGC activity in crude homogenates of mouse tissue was performed as previously described (Nedvetsky et al., Brain Res. 2002; 950(1-2):148-154. doi: 10.1016/50006-8993(02)03015-9).[9] Briefly, all samples were measured as the formation of cGMP at 37° C. during 10 min in a total incubation volume of […] containing 50 mM triethanolamine-HCl (pH 7.4), 3 mM MgCl2, 3 mM glutathione (Carl Roth, Karlsruhe, Germany), 1 mM IBMX, […], 5 mM creatine phosphate, 0.25 mg/ml creatine kinase and 1 mM or 0.5 mM GTP. After adding sGC activator in the absence or presence of the sGC stimulator the reaction was started by application of GTP solution. Following incubation of each sample for 10 min the reaction was stopped by boiling for 10 min at 95° C. Thereafter the amount of cGMP was subsequently determined by a commercial enzyme immunoassay kit (Enzo Life Sciences, Lorrach, Germany or Biotrend, Cologne, Germany). In some experiments pre-incubation of freshly homogenized tissue with ODQ at 37° C. for 20 min prior measuring sGC activation was required.
# [2] = system: isolated rat mesenteric arteries; assay: Relaxation of isolated rat mesenteric arteries (myograph)
# From the text: The animals were killed humanely via CO2 inhalation (95% CO2, 5% O2) followed by cervical dislocation and exsanguination. The required tissues were dissected and placed in ice-cold oxygenated Krebs' solution (composition in mM: NaCl 119, KCl 4.7, MgSO4 1.17, NaHCO3 25, KH2PO4 1.18, CaCl2 2.5, glucose 5.5, EDTA 0.026, pH 7.4). The collected arteries were carefully freed of fat and connective tissue and cut into 2 mm rings.
# The segments were then mounted in a small vessel myograph for the measurement of changes in isometric tension. Two 40 μm stainless steel wires were inserted through the lumen of the segment, one attached to an isometric force transducer and the other to a support driven by a micrometer. The vessels were maintained in Krebs' solution at 37° C. in 7 ml myograph chambers and were continuously bubbled with carbogen (95% O2, 5% CO2). Arteries were allowed to equilibrate for a 30 min period under zero force after which their internal diameter was normalised to an equivalent transmural pressure of 100 mmHg. Changes in isometric tension were reordered using a Myograph Interface Model 610 M version 2.2 (AD Instruments, Pty Ltd) and a chart recorder (Yokogawa, Japan), or using a MacLab® (MacLab® data-acquisition system, AD Instruments Pty Ltd.), interfaced with a Macintosh Computer. Following the 30 min equilibration period at optimal resting tension, the vessels were contracted maximally using a potassium depolarising KPSS solution (composition in mM: KCl 123, MgSO4 1.17, KH2PO4 2.37, CaCl2 2.5, glucose, 5.5 and EDTA 0.026). After the maximum contraction reached a plateau, the vessels were washed thoroughly using Krebs' solution and the tension allowed to return to the baseline. The vessels were then pre-contracted to ≈50% maximum contraction using titrated concentration of the thromboxane A2 mimetic U46619 (0.1-100 nM) and a titrated concentration of the al agonist cirazoline (1-100 nM). Subsequently, cumulative (0.5 log unit) concentration response curve to BAY 58-2667 (1 pM-0.1 μM) were constructed in the presence and absence of 100nM BAY 41-2272 (100 nM). All treatments used in our study including the pre-incubation with 10 μM ODQ for 30 min were added before the 50% pre-contraction with cirazoline and U46619 and only one concentration response curve to any vasodilator was constructed in each segment of the blood vessel. At the completion of each concentration response curve, maximal relaxation was achieved by adding nifedipine 10 μM.
# Results are expressed as mean±s.e.m, with n representing the number of samples used from separate subjects. Statistical significance was accepted at the P<0.05 level. Relaxation responses to BAY58-2667 were expressed as a percentage reversal of the level of pre-contraction to U46619, with the response to nifedipine 10 μM defined as 100% relaxation. The individual response curves obtained for each vasodilator were fitted using non-linear regressions (Graphpad Prism®, version 5). In-vitro experiments have been performed with n=3 and n=1. Maximal relaxation values (%) at specific concentrations of the compounds were compared. For multiple comparisons, student's t-test or one-way analysis of variance (ANOVA) was followed by Bonferroni's test. • The results of our experiments are represented by the following non-limiting examples.
# [3] = system: C57B16/J mice, transient occlusion of the middle cerebral artery (tMCAO); assay: tMCAO ischemia model, infarct size; format: in vivo, mouse; conditions: 0.1 mg/kg i.p. 1 h after reperfusion; 1 h tMCAO, 24 h reperfusion; versus non-treated animals (FIG. 10)
# Protocol: C57B16/J mice were anesthetized with isoflurane (0.6% in oxygen). The animal was placed on a heating-pad, and rectal temperature was maintained at 37.0° C. Transient cerebral ischemia was induced using an intraluminal filament technique. Using a surgical microscope (Tecnoscopio OPMI pico, Carl Zeiss, Meditec Iberia SA, Spain), a midline neck incision was made and the right common and external carotid arteries were isolated and permanently ligated. A microvascular temporarily ligature was placed on the internal carotid artery to temporarily stop the blood flow. A silicon rubber-coated monofilament (6023910PK10, Doccol, USA) was inserted through a small incision into the common carotid artery and advanced into the internal carotid artery until a resistance is felt. […]
# After sacrificing the mice, brains were quickly removed and cut in four 2-mm thick coronal sections using a mouse brain slice matrix (Harvard Apparatus, USA). […] Indirect infarct volumes were calculated by volumetry (ImageJ software, National Institutes of Health, USA) according to the following equation: Vindirect (mm^3)=Vinfarct×(1−(Vih−Vch)/Vch), where the term (Vih−Vch) represents the volume difference between the ischemic hemisphere and the control hemisphere and (Vih−Vch)/Vch expresses this difference as a percentage of the control hemisphere.
SMILES,"effect of BAY 58-2667 on sGC activity in the presence of BAY 41-2272 ([1]; 0.3 μM BAY 58-2667 + 10 μM BAY 41-2272, fold stimulation versus basal activity (FIG. 1))","sGC activity, response to compound alone ([1]; lung homogenates of apo-sGC mice, compound alone)","potentiation of BAY 58-2667 by BAY 41-2272 ([1]; lung homogenates of apo-sGC mice, maximal efficiency in the nano-molar range)","maximal relaxation, BAY 58-2667 combined with BAY 41-2272 ([2]; 0.0003 μM BAY 58-2667 + 0.1 μM BAY 41-2272 (FIG. 2))","maximal relaxation, BAY 58-2667 combined with BAY 41-2272 ([2]; 0.001 μM BAY 58-2667 + 0.1 μM BAY 41-2272 (FIG. 3))","maximal relaxation, BAY 58-2667 combined with BAY 41-2272 ([2]; 0.003 μM BAY 58-2667 + 0.1 μM BAY 41-2272 (FIG. 4))",infarct size / infarct volume [3]
O=C(O)CCCCN(CCc1ccccc1OCc1ccc(CCc2ccccc2)cc1)Cc1ccc(C(=O)O)cc1 [BAY 58-2667],potentiated,fully responsive,potentiation,Super-additive effects,Super-additive effects,Super-additive effects,–
"COC(=O)N(C)c1c(N)nc(-c2nn(Cc3ccccc3F)c3ncccc23)nc1N [BAY 63-2521, riociguat]",–,–,–,–,–,–,reduces infarct size
